Data: patent publication US20240025883A1, “PYRIMIDIN-2-YL SULFONAMIDE DERIVATIVES” (Hoffmann-La Roche Inc., priority 2021, published 2024)

Target: human GPR17 short isoform (Homo sapiens (Human), UniProt Q13304)
Assay: GPR17 cAMP assay (hGPR17 cAMP, antagonist mode against EC80 of MDL29,951)
Assay type: cell-based
Conditions: CHO-K1 cells stably expressing human GPR17 short isoform; EC80 of agonist MDL29,951; forskolin 15 μM
Protocol: GPR17 cAMP Assay Protocol:
CHO-K1 cells stably expressing vector containing untagged human GPR17 short isoform (Roche) were cultured at 37° C./5% CO2 in DMEM (Dulbecco's Modified Eagle Medium):F-12 (1:1) supplemented with 10% foetal bovine serum and 400 μg/ml Geneticin.
Changes in intracellular cyclic adenosine monophosphate (cAMP) levels were quantified using the Nano-TRF Detection Assay kit (Roche Diagnostics, Cat. No. 05214386001). This assay allows for direct cAMP quantification in a homogeneous solution, cAMP is detected based on time-resolved fluorescence energy transfer (TR-FRET) and competitive binding of ruthenylated cAMP and endogenous cAMP to an anti-cAMP monoclonal antibody labeled with AlexaFluor-700. The Ruthenium complex serves as the FRET donor and transfers energy to AlexaFluor-700. The FRET signal is inversely proportional to the cAMP concentration.
CHO-GPR17S cells were detached with Accutase and resuspended in assay buffer consisting of Hank's Balanced Salt Solution (HBSS), 10 mM HEPES (4-(2-hydroxyethyl) piperazine-1-ethanesulfonic acid solution) and 0.1% bovine serum albumin (pH 7.4). The cells were seeded in black 384-well plates (Corning) at a density of 10,000 cells/20 μl assay buffer until the addition of compounds.
Test antagonist compounds were serially diluted in dimethyl sulfoxide (DMSO) and spotted in 384-well plates. The compounds were then diluted in HBSS buffer supplemented with an EC80 concentration of MDL29,951 (3-(2-Carboxy-4,6-dichloroindol-3-yl)propionic acid) (GPR17 agonist) plus 3-Isobutyl-1-methylxanthine (IBMX) (0.5 mM final concentration) and added to the cells at room temperature. Forskolin (15 μM final concentration) was added 5 minutes after the test compounds and the cells were incubated at room temperature for 30 minutes. The assay was stopped by adding cAMP detection mix (containing detergents for cell lysis) for 90 minutes at room temperature.
Cellular cAMP was measured using a Paradigm reader (Molecular Devices). The raw data was used to calculate the FRET signal based on the assay's P-factor as per cAMP kit instructions. The data was normalized to the maximal activity of a reference antagonist and dose response curves were fitted to the percent activity of the test compounds using a sigmoidal dose response model (Genedata Screener).

human GPR17 short isoform, sequence (Q13304 29-367): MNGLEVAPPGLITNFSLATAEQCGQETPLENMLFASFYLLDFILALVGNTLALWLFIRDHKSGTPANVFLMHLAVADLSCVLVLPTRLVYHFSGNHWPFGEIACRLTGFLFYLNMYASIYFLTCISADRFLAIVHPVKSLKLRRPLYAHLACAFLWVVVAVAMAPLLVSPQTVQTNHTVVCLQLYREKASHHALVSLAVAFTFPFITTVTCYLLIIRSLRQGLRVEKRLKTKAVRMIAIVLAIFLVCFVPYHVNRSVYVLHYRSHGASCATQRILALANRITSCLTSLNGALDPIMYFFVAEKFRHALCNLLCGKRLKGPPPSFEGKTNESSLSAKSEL

Row | Structure (SMILES) | IC50 [nM]
1 | COc1nc(NS(=O)(=O)c2c[nH]c3cc(Cl)c(F)cc23)ncc1CC(F)F [Example 185, 6-chloro-N-[5-(2,2-difluoroethyl)-4-methoxy-pyrimidin-2-yl]-5-fluoro-1H-indole-3-sulfonamide] | 89
2 | COc1nc(NS(=O)(=O)c2csc3nc(Br)ccc23)nc(OC)c1OC(F)F [Example 269, 6-bromo-N-[5-(difluoromethoxy)-4,6-dimethoxy-pyrimidin-2-yl]thieno[2,3-b]pyridine-3-Sulfonamide] | 138
3 | COc1nc(NS(=O)(=O)c2c[nH]c3cc(C(C)(C)O)ccc23)ncc1CC(F)F [Example 274, N-[5-(2,2-difluoroethyl)-4-methoxy-pyrimidin-2-yl]-6-(1-hydroxy-1-methyl-ethyl)-1h-indole-3-sulfonamide] | 237
4 | COc1nc(NS(=O)(=O)c2c[nH]c3nc(Br)ccc23)nc(OC)c1OCC#N [Example 114, 6-bromo-N-[5-(cyanomethoxy)-4,6-dimethoxy-pyrimidin-2-yl]-1H-pyrrolo[2,3-b]pyridine-3-sulfonamide] | 45
5 | COc1nc(NS(=O)(=O)c2c[nH]c3c4c(ccc23)CCN(C)C4=O)ncc1OCCF [Example 293, N-[5-(2-Fluoroethoxy)-4-Methoxy-Pyrimidin-2-Yl]-9-Keto-8-Methyl-6,7-Dihydro-1H-Pyrrol[3,2-h]Isoquinoline-3-Sulfonamide] | 240
6 | COc1nc(NS(=O)(=O)c2c[nH]c3nc(Cl)ccc23)ncc1OCCF [Example 10, 6-chloro-N-[5-(2-fluoroethoxy)-4-methoxy-pyrimidin-2-yl]-1H-pyrrolo[2,3-b]pyridine-3-sulfonamide] | 96
7 | COc1nc(NS(=O)(=O)c2c[nH]c3c(C(F)F)c(Cl)ccc23)ncc1OCCF [Example 4, 6-chloro-7-(difluoromethyl)-N-[5-(2-fluoroethoxy)-4-methoxy-pyrimidin-2-yl]-1H-indole-3-sulfonamide] | 34
8 | COc1nc(NS(=O)(=O)c2c[nH]c3cc(Cl)ccc23)nc(OC)c1C#N [Example 32, 6-chloro-N-(5-cyano-4,6-dimethoxy-pyrimidin-2-yl)-1H-indole-3-sulfonamide] | 232
9 | COc1nc(NS(=O)(=O)c2c[nH]c3nc(Br)ccc23)ncc1OCCF [Example 230, 6-bromo-N-[5-(2-fluoroethoxy)-4-methoxy-pyrimidin-2-yl]-1H-pyrrolo[2,3-b]pyridine-3-sulfonamide] | 41
10 | COc1nc(NS(=O)(=O)c2c[nH]c3cc(Cl)ccc23)nc(OC)c1Cl [Example 11, 6-chloro-N-(5-chloro-4,6-dimethoxy-pyrimidin-2-yl)-1H-indole-3-sulfonamide] | 91
11 | COc1nc(NS(=O)(=O)c2c[nH]c3nc(Br)ccc23)nc(OC)c1CC(F)CF (centres unmarked) [Example 288, 6-Bromo-N-[5-(2,3-Difluoropropyl)-4,6-Dimethoxy-Pyrimidin-2-Yl]-1H-Pyrrolo[2,3-b]Pyridine-3-Sulfonamide] | 57
12 | COc1nc(NS(=O)(=O)c2csc3cc(C)ccc23)ncc1OCCF [Example 159, N-[5-(2-fluoroethoxy)-4-methoxy-pyrimidin-2-yl]-6-methyl-benzothiophene-3-sulfonamide] | 218
13 | COc1nc(NS(=O)(=O)c2c[nH]c3cc(F)ccc23)nc(OC)c1OC(F)F [Example 256, N-[5-(difluoromethoxy)-4,6-dimethoxy-pyrimidin-2-yl]-6-fluoro-1H-indole-3-sulfonamide] | 215
14 | COc1nc(NS(=O)(=O)c2c[nH]c3nc(Cl)ccc23)nc(OC)c1C [Example 118, 6-chloro-N-(4,6-dimethoxy-5-methyl-pyrimidin-2-yl)-1H-pyrrolo[2,3-b]pyridine-3-sulfonamide] | 33
15 | COc1nc(NS(=O)(=O)c2c[nH]c3cc(Br)ccc23)ncc1OC(F)F [Example 189, 6-bromo-N-[5-(difluoromethoxy)-4-methoxy-pyrimidin-2-yl]-1H-indole-3-sulfonamide] | 167
16 | COc1nc(NS(=O)(=O)c2csc3cc(Cl)ccc23)ncc1OCCF [Example 24, 6-chloro-n-[5-(2-fluoroethoxy)-4-methoxy-pyrimidin-2-yl]benzothiophene-3-sulfonamide] | 51
17 | COc1nc(NS(=O)(=O)c2c[nH]c3nc(C)ccc23)nc(OC)c1OCC(F)F [Example 285, N-[5-(2,2-Difluoroethoxy)-4,6-Dimethoxy-Pyrimidin-2-Yl]-6-Methyl-1H-Pyrrolo[2,3-b]Pyridine-3-Sulfonamide] | 117
18 | COc1nc(NS(=O)(=O)c2c[nH]c3nc(Cl)ccc23)nc(OC)c1OCC(F)F [Example 206, 6-chloro-N-[5-(2,2-difluoroethoxy)-4,6-dimethoxy-pyrimidin-2-yl]-1H-pyrrolo[2,3-b]pyridine-3-sulfonamide] | 57
19 | CCc1nc(NS(=O)(=O)c2c[nH]c3cc(Cl)ccc23)nc(OC)c1OCC(F)F [Example 77, 6-chloro-N-[5-(2,2-difluoroethoxy)-4-ethyl-6-methoxy-pyrimidin-2-yl]-1H-indole-3-sulfonamide] | 148
20 | COc1nc(NS(=O)(=O)c2csc3c(F)c(Cl)ccc23)ncc1CC(F)F [Example 162, 6-chloro-N-[5-(2,2-difluoroethyl)-4-methoxy-pyrimidin-2-yl]-7-fluoro-benzothiophene-3-sulfonamide] | 248
21 | COC(=O)c1c(C)ccc2c(S(=O)(=O)Nc3ncc(CC(F)F)c(OC)n3)c[nH]c12 [Example 291, 3-[[5-(2,2-Difluoroethyl)-4-Methoxy-Pyrimidin-2-Yl]Sulfamoyl]-6-Methyl-1H-Indole-7-Carboxylic Acid Methyl Ester] | 842

The next compounds have a lower IC50 than those just listed; values first:

Row | IC50 [nM] | Structure (SMILES)
22 | 30 | COc1nc(NS(=O)(=O)c2c[nH]c3nc(Br)ccc23)ncc1CCC(F)F [Example 201, 6-bromo-N-[5-(3,3-difluoropropyl)-4-methoxy-pyrimidin-2-yl]-1H-pyrrolo[2,3-b]pyridine-3-sulfonamide]
23 | 29 | COc1nc(NS(=O)(=O)c2c[nH]c3nc(Cl)ccc23)ncc1CCC(F)F [Example 204, 6-chloro-N-[5-(3,3-difluoropropyl)-4-methoxy-pyrimidin-2-yl]-1H-pyrrolo[2,3-b]pyridine-3-sulfonamide]
24 | 27 | COc1nc(NS(=O)(=O)c2c[nH]c3c4c(ccc23)COC4)nc(OC)c1CC(F)F [Example 229, N-[5-(2,2-difluoroethyl)-4,6-dimethoxy-pyrimidin-2-yl]-6,8-dihydro-1H-fur[3,4-g]indole-3-sulfonamide]
25 | 25 | COc1nc(NS(=O)(=O)c2c[nH]c3nc(C(F)F)ccc23)nc(OC)c1CC(F)F [Example 194, N-[5-(2,2-difluoroethyl)-4,6-dimethoxy-pyrimidin-2-yl]-6-(difluoromethyl)-1H-pyrrolo[2,3-b]pyridine-3-sulfonamide]
26 | 25 | COc1nc(NS(=O)(=O)c2c[nH]c3c(F)c(Cl)ccc23)nc(OC)c1OCC(F)F [Example 208, 6-chloro-N-[5-(2,2-difluoroethoxy)-4,6-dimethoxy-pyrimidin-2-yl]-7-fluoro-1H-indole-3-sulfonamide]
27 | 25 | COc1nc(NS(=O)(=O)c2c[nH]c3nc(Br)ccc23)nc(OC)c1OC(F)(F)CF [Example 110, 6-bromo-N-[4,6-dimethoxy-5-(1,1,2-trifluoroethoxy)pyrimidin-2-yl]-1H-pyrrolo[2,3-b]pyridine-3-sulfonamide]
28 | 23 | COc1nc(NS(=O)(=O)c2c[nH]c3cc(Cl)ccc23)nc(OC)c1CC(F)CF (centres unmarked) [Example 264, 6-chloro-N-[5-(2,3-difluoropropyl)-4,6-dimethoxy-pyrimidin-2-yl]-1H-indole-3-sulfonamide]
29 | 16 | COc1nc(NS(=O)(=O)c2c[nH]c3c(SC)c(Cl)ccc23)ncc1CC(F)F [Example 234, 6-chloro-N-[5-(2,2-difluoroethyl)-4-methoxy-pyrimidin-2-yl]-7-(methylthio)-1H-indole-3-sulfonamide]
30 | 13 | COc1nc(NS(=O)(=O)c2c[nH]c3c(OC)c(Cl)ccc23)ncc1CC(F)F [Example 186, 6-chloro-N-[5-(2,2-difluoroethyl)-4-methoxy-pyrimidin-2-yl]-7-methoxy-1H-indole-3-sulfonamide]
31 | 13 | C=CCc1c(OC)nc(NS(=O)(=O)c2c[nH]c3cc(Cl)ccc23)nc1OC [Example 56, N-(5-allyl-4,6-dimethoxy-pyrimidin-2-yl)-6-chloro-1H-indole-3-sulfonamide]
32 | 12 | COc1nc(NS(=O)(=O)c2c[nH]c3cc(Cl)ccc23)ncc1CCCF [Example 21, 6-chloro-N-[5-(3-fluoropropyl)-4-methoxy-pyrimidin-2-yl]-1H-indole-3-sulfonamide]
